From patent publication US12351819B2, “Method for removing undifferentiated pluripotent stem cells” (priority 2017, dated 2025)

Key:
[1] = tested on: hESC-hepatocyte endoderm cells; assay: LDH cytotoxicity assay in hESC-derived hepatocyte endoderm; format: cell-based, human; details: Table 1
Method: This protocol followed a method previously published in Nature Protocols^36. The hESCs were detached by 0.5 mM EDTA (Life Technologies, Camarillo, C, USA), seeded on VTN-N coated culture plates (Corning) and maintained for 48 hours in mTeSR 1 medium. Then, the medium was refreshed daily for all following steps. On days 1-2, the medium was replaced with fresh CDM-PVA (consisting of 0.5 g of PVA (Sigma) dissolved in 250 ml of IMDM/F-12, GlutaMAX (Invitrogen), 250 ml of IMDM (Invitrogen), 5 ml of chemically defined lipid concentrate (Invitrogen), 20 of thioglycerol 97% (Sigma), 350 of insulin (10 mg/ml; Roche), 250 of transferrin (30 mg/ml; Roche) plus Activin A (100 ng/ml; R&D), bFGF (80 ng/ml; R&D), BMP4 (10 ng/ml; R&D), and […] of LY-294002 (Promega). On day 3, the cells were differentiated in RPMI Medium supplemented with Activin A (100 ng/ml) and bFGF (80 ng/ml). On days 4-6, the cells were expanded in RPMI medium supplemented with Activin A (50 ng/ml). On day 7, the cells were passaged and re-plated 105,000 cells/cm^2 cells in VTN-N coated culture plates in RPMI containing Activin A (50 ng/ml) and Y-27632 2HCl (10 μM Selleck-chem, Houston, TX, USA and Munich, Germany). Then, the cells were maintained in RPMI+Activin A (50 ng/ml) on days 8-11. The cells were differentiated into the hepatocyte endoderm and analyzed following the drug treatments. The expression of alpha-fetoprotein (A0008, Dako, Santa Clara, CA, USA) was analyzed in the hepatocyte endoderm via immunofluorescence staining.

hESCs (H9) = details: for LDH assay positive, hESCs: Table 1; for cytotoxic effect (LDH release) in hESCs: 2.5 μM, 24 hours, vs DMSO
Method: The hESC line H9 was purchased from WiCells (Madison, WI, USA)^27. Another hESC line, HUES6, was kindly provided by Dr. Douglas A. Melton (Harvard University, Boston, MA, USA)^28. Cells were maintained on the feeder cells and cultured in Dulbecco's modified Eagle's medium (DMEM)/F12 supplemented with 20% knockout serum replacement, 2 mM L-glutamine, 1% nonessential amino acids, 4 ng/mL human bFGF, and 0.1 mM 2-mercaptoethanol. For the feeder cells culture, C57BL/6 mouse embryonic fibroblasts (MEF) were cultured in the DMEM with 10% FBS and treated cells with 0.01 mg/ml mitomycin C 2-6 hours for inactivation. For the feeder-free culture, hESCs were seeded on the Matrigel Matrix (BD Biosciences, San Jose, CA, USA) coated culture plates and maintained by conditioned medium of MEF (C57BL/6). hBMMSCs were cultured in mesenPRO RS™ kit (Life Technologies, Camarillo, CA, USA). All cells were cultured in a humidified atmosphere containing 5% CO2 at 37° C.
(§1) The supernatants of cells treated with digoxin […], lanatoside C 2.5 μm, or DMSO solvent control for 24 hours were harvested. The released LDH was measured using CytoTox 96 […] assay according to the manufacture's instruction (Promega, Southampton, UK). The supernatants and reagents were incubated at room temperature for 20 minutes and then the reaction was stopped by Stop Solution. The absorbance at 490 nm was measured using a plate-reading spectrophotometer (Benchmark Plus Microplate Spectrophotometer System, BIO-RAD, CA, USA).

hESCs = assay: Alamar blue assay, hESCs; format: cell-based, human; details: FIG. 12
Method: Alamar blue assay measured the relative cell number. In the cells, we added 1/10 of Alamar Blue Viability Assay reagent to the total volume of the mixture (Biotium; Fremont, CA, USA). The cells were incubated overnight at 37° C. The resulted were quantified by the measurement of optical density (OD) absorbance values at 570 nm and 600 nm, and the relative cell number was calculated.

hiPSCs = details: Table 1; hiPSCs
Method: as §1
hiPSC-derived endothelial cells were prepared according in a previous report^34. The hiPSCs were maintained in mTeSR 1 medium ([…] Technologies, Vancouver, Canada) on VTN-N coated plates (Thermo, Wilmington, DE, USA). First, for the stepwise induction of differentiation, we performed a mesoderm induction of hiPSCs seeded in mesoderm induction medium for 48 hours (basal medium with […], […], and 2 ng/ml of Activin A; basal medium was composed of 12 g/L of DMEM/F-12, 3.56 g/L of HEPES, 1.742 g/L of sodium bicarbonate, 14 μg/L of sodium selenite, 10.7 mg/L of recombinant transferrin, 19.4 mg/L of recombinant insulin, and 64 mg/L of L-Ascorbic acid 2-phosphate sesquimagnesium salt hydrate). Second, for the mesoderm to endothelium transition, mesoderm cells were reseeded in vasculogenic medium (basal medium with 2 mg/ml of PVA plus 20 ng/ml of hVEGF-A) for an additional 72 hours. All differentiated cells were plated on VTN pre-coated culture plate dishes. The endothelial cells were analyzed on day 5 by flow cytometry staining with the CD31 (PECAM1, ThermoFisher Scientific, Wilmington, DE, USA) and CD144 (CDH5, ThermoFisher Scientific) antibodies.

H9 hESC-MSCs = details: 2.5 μM, 24 hours
Method: as §1
According to the report from Dr. Xu and colleagues^30, hESCs were cultured with 10 ng/ml BMP4 and 1 μM of A8301 for 5 days. Next, the cells were passaged on the gelatin-coated plate and the culture medium was switched to MSC culture medium [Minimum Essential Medium Eagle Alpha Modification (αMEM) medium supplemented with 20% fetal bovine serum (FBS), 1-glutamine (Gluta-MAX), 1× nonessential amino acids]. Cells were expanded within passage 5, and CD73^+ (11-0793, ThermoFisher Scientific) and CD105^+ (12-1057, ThermoFisher Scientific) double positive cells were sorted.
hESC-derived MSCs were trypsinized and washed with PBS. Then cells were incubated with anti-human CD73 FITC (ThermoFisher Scientific) and anti-human CD105 PE (ThermoFisher Scientific) for 15 minutes at 4° C. Cells were washed cells with PBS for three times. CD73^+/CD105^+ cells were sorted with the cell sorter (BD FACSAria II, BD Biosciences). Sorted cells were maintained in MSC culture medium.

hPSCs = details: background, literature; cited from earlier work
hPSCs teratoma formation = details: background, literature; cited from earlier work
PERK/AT4/DDIT3 pathway = details: through the PERK/AT4/DDIT3 pathway; literature; cited from earlier work

Structure (SMILES)	LDH assay positive, hepatocyte endoderm cells [1]	LDH assay positive, hESCs (hESCs (H9))	cell death in hESCs (Alamar blue, relative cell number) (hESCs)	LDH assay positive, hiPSCs (hiPSCs)	cytotoxicity (LDH release) in H9 hESC-MSCs (H9 hESC-MSCs)	cytotoxic effect (LDH release) in hESCs (hESCs (H9))	selective cell death (hPSCs)	teratoma formation in hPSCs (hPSCs teratoma formation)	ER stress (PERK/AT4/DDIT3 pathway)
C[C@@H]1O[C@@H](O[C@H]2C[C@@H](O)[C@]3(CO)[C@H]4[C@H](O)C[C@]5(C)[C@@H](C6=CC(=O)OC6)CC[C@]5(O)[C@@H]4CC[C@]3(O)C2)[C@H](O)[C@H](O)[C@H]1O [Ouabain, ouabain]	−/+ (10% positive cells)	+++ (more than 70% positive cells)	dose dependent manner	+++ (more than 70% positive cells)	–	–	–	–	–
C[C@]12CC[C@H](O)C[C@H]1CC[C@@H]1[C@@H]2CC[C@]2(C)[C@@H](c3ccc(=O)oc3)CC[C@]12O [Bufalin, bufalin]	−/+ (10% positive cells)	+++ (more than 70% positive cells)	–	+++ (more than 70% positive cells)	do not induce cytotoxicity	induced cytotoxicity	–	–	–
O=c1c(O)c(-c2ccc(O)c(O)c2)oc2cc(O)cc(O)c12 [quercetin]	–	–	–	–	–	–	induced selective cell death	efficiently inhibited teratoma formation	–
CCCCCCCCC(=O)NCc1ccccc1 [JC011]	–	–	–	–	–	–	–	–	induced ER stress
C[C@@H]1O[C@@H](O[C@@H]2C=C3CC[C@@H]4[C@H](CC[C@]5(C)[C@@H](c6ccc(=O)oc6)CC[C@]45O)[C@@]3(C)CC2)[C@H](O)[C@H](O)[C@H]1O [Proscillaridin A, proscillaridin A]	−/+ (10% positive cells)	+++ (more than 70% positive cells)	dose dependent manner	+++ (more than 70% positive cells)	do not induce cytotoxicity	induced cytotoxicity	–	–	–
COCCn1c2c([n+](Cc3cnccn3)c1C)C(=O)c1ccccc1C2=O [YM155]	–	–	–	–	–	–	induced selective cell death	efficiently inhibited teratoma formation	–
C[C@]12CC[C@H](O)C[C@H]1CC[C@@H]1[C@@H]2CC[C@]2(C)[C@@H](C3=CC(=O)OC3)CC[C@]12O [Digitoxigenin, digitoxigenin]	−/+ (10% positive cells)	+++ (more than 70% positive cells)	dose dependent manner	+++ (more than 70% positive cells)	–	–	–	–	–
C[C@H]1O[C@@H](O[C@H]2[C@@H](O)C[C@H](O[C@H]3[C@@H](O)C[C@H](O[C@H]4CC[C@@]5(C)[C@H](CC[C@@H]6[C@@H]5CC[C@]5(C)[C@@H](C7=CC(=O)OC7)CC[C@]65O)C4)O[C@@H]3C)O[C@@H]2C)C[C@H](O)[C@@H]1O [Digitoxin, digitoxin]	−/+ (10% positive cells)	+++ (more than 70% positive cells)	dose dependent manner	+++ (more than 70% positive cells)	–	–	–	–	–
O=C(NNc1ccccc1)c1ccncc1 [PluriSin #1]	–	–	–	–	–	–	–	prevented teratoma formation	–
